Assay results taken from patent US20230257372A1 (CHONG KUN DANG PHARMACEUTICAL CORP., priority 2020, published 2023).
Like-named read-outs stand apart in the source and are kept apart here.

Assays:
human recombinant HDAC1 = target: T1, human recombinant HDAC1 (Homo sapiens, UniProt Q13547); experiment: HDAC1 enzyme activity inhibition (HDAC Fluorimetric Drug Discovery Kit); assay type: biochemical; details: read-out: HDAC1
T1 construct: purchased Enzo Life Science, Inc. BML-SE456
How it was run: (§1)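 Five-fold compound dilutions incubated with […] recombinant enzyme and 10 μM fluorogenic Fluor de Lys substrate, 60 min at 30° C. Fluor de Lys Developer II then added for 30 min to generate the fluorescent read-out.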

human recombinant HDAC6 = target: T2, human recombinant HDAC6 (Homo sapiens, UniProt Q9UBN7); experiment: HDAC6 enzyme activity inhibition (HDAC Fluorimetric Drug Discovery Kit); assay type: biochemical
T2 construct: purchased Calbiochem Inc. 382180
T2 sequence (Q9UBN7 1-1215): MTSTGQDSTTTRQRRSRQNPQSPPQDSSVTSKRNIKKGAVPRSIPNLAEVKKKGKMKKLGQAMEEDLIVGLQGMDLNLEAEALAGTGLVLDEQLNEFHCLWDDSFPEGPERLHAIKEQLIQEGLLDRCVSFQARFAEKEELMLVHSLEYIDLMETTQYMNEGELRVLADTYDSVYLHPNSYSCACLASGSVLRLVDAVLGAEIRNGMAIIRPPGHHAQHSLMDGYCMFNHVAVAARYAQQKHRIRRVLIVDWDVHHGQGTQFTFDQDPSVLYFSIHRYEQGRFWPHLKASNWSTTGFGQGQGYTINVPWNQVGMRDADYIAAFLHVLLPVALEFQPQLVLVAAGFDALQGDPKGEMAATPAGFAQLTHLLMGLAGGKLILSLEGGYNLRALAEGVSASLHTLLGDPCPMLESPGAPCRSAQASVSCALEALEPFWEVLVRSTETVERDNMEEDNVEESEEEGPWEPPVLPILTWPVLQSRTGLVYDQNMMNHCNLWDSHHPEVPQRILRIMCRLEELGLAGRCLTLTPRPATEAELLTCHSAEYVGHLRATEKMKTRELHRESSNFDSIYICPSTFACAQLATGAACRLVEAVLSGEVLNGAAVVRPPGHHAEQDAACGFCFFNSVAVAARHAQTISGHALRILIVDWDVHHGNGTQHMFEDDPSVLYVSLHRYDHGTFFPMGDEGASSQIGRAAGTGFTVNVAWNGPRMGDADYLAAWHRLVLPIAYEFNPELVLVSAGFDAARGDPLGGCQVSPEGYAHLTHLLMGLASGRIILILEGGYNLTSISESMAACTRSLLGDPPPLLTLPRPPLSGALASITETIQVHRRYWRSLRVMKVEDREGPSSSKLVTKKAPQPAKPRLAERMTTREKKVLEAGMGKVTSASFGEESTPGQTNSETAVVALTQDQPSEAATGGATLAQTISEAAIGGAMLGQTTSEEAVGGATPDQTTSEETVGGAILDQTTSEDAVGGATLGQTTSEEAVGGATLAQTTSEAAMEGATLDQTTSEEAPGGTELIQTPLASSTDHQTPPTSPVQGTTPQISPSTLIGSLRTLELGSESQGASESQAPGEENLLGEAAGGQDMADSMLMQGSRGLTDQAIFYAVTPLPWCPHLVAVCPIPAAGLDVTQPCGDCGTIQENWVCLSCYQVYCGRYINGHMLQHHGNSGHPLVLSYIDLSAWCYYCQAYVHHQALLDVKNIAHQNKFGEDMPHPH
How it was run: as §1

[1] = human recombinant HDAC1, Fluor de Lys substrate, 30° C. 60 minutes
[2] = human recombinant HDAC6, same protocol as HDAC1
[3] = human recombinant HDAC1, IC50 calculated with GraphPad Prism
[4] = human recombinant HDAC6, IC50 calculated with GraphPad Prism

T1 sequence (Q13547 whole entry): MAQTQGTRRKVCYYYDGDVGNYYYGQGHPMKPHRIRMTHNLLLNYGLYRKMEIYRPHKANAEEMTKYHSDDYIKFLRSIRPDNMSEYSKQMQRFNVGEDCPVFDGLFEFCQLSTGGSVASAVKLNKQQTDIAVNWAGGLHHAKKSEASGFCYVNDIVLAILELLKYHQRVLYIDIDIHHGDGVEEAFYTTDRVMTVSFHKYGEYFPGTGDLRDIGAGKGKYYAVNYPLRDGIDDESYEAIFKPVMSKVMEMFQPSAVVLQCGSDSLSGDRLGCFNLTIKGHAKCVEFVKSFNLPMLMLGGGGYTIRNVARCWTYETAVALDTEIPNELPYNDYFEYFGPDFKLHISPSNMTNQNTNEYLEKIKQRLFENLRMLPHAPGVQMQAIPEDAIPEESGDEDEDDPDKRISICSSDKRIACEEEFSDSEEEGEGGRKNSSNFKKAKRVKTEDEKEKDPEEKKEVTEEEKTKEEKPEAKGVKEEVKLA

| SMILES | IC50 (human recombinant HDAC1; [1]) | HDAC6 selectivity (fold) (human recombinant HDAC6; HDAC6 over HDAC1) | IC50 (human recombinant HDAC6; [2]) | IC50 (human recombinant HDAC1; [3]) | HDAC6 selectivity (fold) (human recombinant HDAC6; HDAC1 IC50 / HDAC6 IC50) | IC50 (human recombinant HDAC6; [4]) |
| --- | --- | --- | --- | --- | --- | --- |
| CCN1CCN(c2cc(-c3cn(Cc4ccc(-c5nnc(C(F)F)o5)cc4)nn3)ccc2F)CC1 [Compound 4420, 2-(difluoromethyl)-5-(4-((4-(3-(4-ethylpiperazin-1-yl)-4-fluorophenyl)-1H-1,2,3-triazol-1-yl)methyl)phenyl)-1,3,4-oxadiazole] | – | – | – | > 50000 nM | 287 fold | 174 nM |
| CC(C)(F)CN1CCC(c2cn(Cc3ccc(-c4nnc(C(F)F)o4)cn3)nn2)CC1 [Compound 3895, 2-(difluoromethyl)-5-(6-((4-(1-(2-fluoro-2-methylpropyl)piperidin-4-yl)-1H-1,2,3-triazol-1-yl)methyl)pyridin-3-yl)-1,3,4-oxadiazole] | – | – | – | > 50000 nM | 171 fold | 293 nM |
| CN(C)Cc1cc(Cl)cc(-c2cn(Cc3ccc(-c4nnc(C(F)F)o4)cc3F)nn2)c1 [Compound 18483, 1-(3-chloro-5-(1-(4-(5-(difluoromethyl)-1,3,4-oxadiazol-2-yl)-2-fluorobenzyl)-1H-1,2,3-triazol-4-yl)phenyl)-N,N-dimethylmethanamine] | > 50000 nM | 970 fold | 51.5 nM | – | – | – |
| CC(C)N1CCc2cc(-c3cn(Cc4ccc(-c5nnc(C(F)F)o5)cc4F)nn3)ccc2C1 [Compound 4360, 2-(difluoromethyl)-5-(3-fluoro-4-((4-(2-isopropyl-1,2,3,4-tetrahydroisoquinolin-6-yl)-1H-1,2,3-triazol-1-yl)methyl)phenyl)-1,3,4-oxadiazole] | – | – | – | > 50000 nM | 881 fold | 56.7 nM |
| O=C(O)c1cccc(-c2cn(Cc3ccc(-c4nnc(C(F)F)o4)cc3F)nn2)c1 [Compound 3660, 3-(1-(4-(5-(difluoromethyl)-1,3,4-oxadiazol-2-yl)-2-fluorobenzyl)-1H-1,2,3-triazol-4-yl)benzoic acid] | – | – | – | > 50000 nM | 175 fold | 285 nM |
| CC(=O)N1CCC(Nc2ccc(F)c(-c3cn(Cc4ccc(-c5nnc(C(F)F)o5)cc4F)nn3)c2)CC1 [Compound 4437, 1-(4-((3-(1-(4-(5-(difluoromethyl)-1,3,4-oxadiazol-2-yl)-2-fluorobenzyl)-1H-1,2,3-triazol-4-yl)-4-fluorophenyl)amino)piperidin-1-yl)ethan-1-one] | – | – | – | > 50000 nM | 600 fold | 83.3 nM |
| Cc1csc(-c2cn(Cc3ccc(-c4nnc(C(F)F)o4)cc3F)nn2)n1 [Compound 17854, 2-(difluoromethyl)-5-(3-fluoro-4-((4-(4-methylthiazol-2-yl)-1H-1,2,3-triazol-1-yl)methyl)phenyl)-1,3,4-oxadiazole] | > 50000 nM | 599 fold | 83.4 nM | – | – | – |
| Fc1cc(-c2nnc(C(F)F)o2)cnc1Cn1cc(-c2cccnc2)nn1 [Compound 18305, 2-(difluoromethyl)-5-(5-fluoro-6-((4-(pyridin-3-yl)-1H-1,2,3-triazol-1-yl)methyl)pyridin-3-yl)-1,3,4-oxadiazole] | > 50000 nM | 539 fold | 92.7 nM | – | – | – |
| FC(F)c1nnc(-c2ccc(Cn3cc(-c4ccc5c(c4)CN(C4COC4)CC5)nn3)nc2)o1 [Compound 4213, 2-(difluoromethyl)-5-(6-((4-(2-(oxetan-3-yl)-1,2,3,4-tetrahydroisoquinolin-7-yl)-1H-1,2,3-triazol-1-yl)methyl)pyridin-3-yl)-1,3,4-oxadiazole] | – | – | – | > 50000 nM | 1730 fold | 28.9 nM |
| OCCCCc1cn(Cc2ccc(-c3nnc(C(F)F)o3)cn2)nn1 [Compound 3834, 4-(1-((5-(5-(difluoromethyl)-1,3,4-oxadiazol-2-yl)pyridin-2-yl)methyl)-1H-1,2,3-triazol-4-yl)butan-1-ol] | – | – | – | > 50000 nM | 217 fold | 238 nM |
| Cc1cncc(-c2cn(Cc3ccc(-c4nnc(C(F)F)o4)cn3)nn2)c1 [Compound 3884, 2-(difluoromethyl)-5-(6-((4-(5-methylpyridin-3-yl)-1H-1,2,3-triazol-1-yl)methyl)pyridin-3-yl)-1,3,4-oxadiazole] | – | – | – | > 50000 nM | 1329 fold | 37.6 nM |
| FC(F)c1nnc(-c2ccc(Cn3cc(C4(F)CCN(C5COC5)CC4)nn3)nc2)o1 [Compound 4008, 2-(difluoromethyl)-5-(6-((4-(4-fluoro-1-(oxetan-3-yl)piperidin-4-yl)-1H-1,2,3-triazol-1-yl)methyl)pyridin-3-yl)-1,3,4-oxadiazole] | – | – | – | > 50000 nM | 408 fold | 122 nM |
| Fc1cc(-c2nnc(C(F)F)o2)cnc1Cn1cc(-c2ccc(CN3CCC3)cc2Cl)nn1 [Compound 19099, 2-(6-((4-(4-(azetidin-1-ylmethyl)-2-chlorophenyl)-1H-1,2,3-triazol-1-yl)methyl)-5-fluoropyridin-3-yl)-5-(difluoromethyl)-1,3,4-oxadiazole] | > 50000 nM | 1061 fold | 47.1 nM | – | – | – |

Now from value to compound:

| IC50 (human recombinant HDAC1; [1]) | HDAC6 selectivity (fold) (human recombinant HDAC6; HDAC6 over HDAC1) | IC50 (human recombinant HDAC6; [2]) | IC50 (human recombinant HDAC1; [3]) | HDAC6 selectivity (fold) (human recombinant HDAC6; HDAC1 IC50 / HDAC6 IC50) | IC50 (human recombinant HDAC6; [4]) | SMILES |
| --- | --- | --- | --- | --- | --- | --- |
| > 50000 nM | 90 fold | 551 nM | – | – | – | CC(C)(C)OC(=O)N1CCC(c2cccc(-c3cn(Cc4ncc(-c5nnc(C(F)F)o5)cc4F)nn3)c2)CC1 [Compound 18868, tert-butyl 4-(3-(1-((5-(5-(difluoromethyl)-1,3,4-oxadiazol-2-yl)-3-fluoropyridin-2-yl)methyl)-1H-1,2,3-triazol-4-yl)phenyl)piperidin-1-carboxylate] |
| – | – | – | > 50000 nM | 1562 fold | 33.2 nM | CN(C)CC(=O)Nc1cccc(-c2cn(Cc3ccc(-c4nnc(C(F)F)o4)cc3F)nn2)c1 [Compound 4352, N-(3-(1-(4-(5-(difluoromethyl)-1,3,4-oxadiazol-2-yl)-2-fluorobenzyl)-1H-1,2,3-triazol-4-yl)phenyl)-2-(dimethylamino)acetamide] |
| – | – | – | > 50000 nM | 2222 fold | 22.5 nM | O=C(Nc1cccc(-c2cn(Cc3ccc(-c4nnc(C(F)F)o4)cn3)nn2)c1)C1CN(C2COC2)C1 [Compound 4465] |
| – | – | – | > 50000 nM | 10 fold | 5000 nM | FC(F)c1nnc(-c2ccc(Cn3cc([C@@H]4CCCN4C4CC5(COC5)C4)nn3)nc2)o1 [Compound 4027, (S)-2-(6-((4-(1-(2-oxaspiro[3.3]heptan-6-yl)pyrrolidin-2-yl)-1H-1,2,3-triazol-1-yl)methyl)pyridin-3-yl)-5-(difluoromethyl)-1,3,4-oxadiazole] |
| – | – | – | > 50000 nM | 1269 fold | 39.4 nM | CC(C)N1CCN(Cc2ccc(-c3cn(Cc4ccc(-c5nnc(C(F)F)o5)cc4F)nn3)cc2)CC1 [Compound 4475, 2-(difluoromethyl)-5-(3-fluoro-4-((4-(4-((4-isopropylpiperazin-1-yl)methyl)phenyl)-1H-1,2,3-triazol-1-yl)methyl)phenyl)-1,3,4-oxadiazole] |
| – | – | – | > 50000 nM | 677 fold | 73.8 nM | Fc1cc(-c2nnc(C(F)F)o2)ccc1Cn1cc(-c2cccc(CN3CCC3)c2)nn1 [Compound 4402, 2-(4-((4-(3-(azetidin-1-ylmethyl)phenyl)-1H-1,2,3-triazol-1-yl)methyl)-3-fluorophenyl)-5-(difluoromethyl)-1,3,4-oxadiazole] |
| – | – | – | > 50000 nM | 912 fold | 54.8 nM | CCCN1CCN(c2cccc(-c3cn(Cc4ccc(-c5nnc(C(F)F)o5)cc4)nn3)c2)CC1 [Compound 4369, 2-(difluoromethyl)-5-(4-((4-(3-(4-propylpiperazin-1-yl)phenyl)-1H-1,2,3-triazol-1-yl)methyl)phenyl)-1,3,4-oxadiazole] |
